From ChEMBL document CHEMBL1154344, “New quaternary ammonium oxicam derivatives: synthesis and in vitro antiosteoarthritis evaluation” (2010) come the findings set out here.

Each structure is given as a SMILES string. The source made the active and inactive calls. The calls are words filed in the database; no cut-off is given here.

For experiment [1], the species on record is Bos taurus. Kind of experiment: (§1) Antiosteoarthritis activity in bovine articular chondrocytes assessed as induction of aggrecan mRNA expression at 10 uM after 5 days by Northern blot analysis relative to control. Type of experiment: functional.
For experiment [2], the species on record is Bos taurus. Kind of experiment: (§2) Antiosteoarthritis activity in bovine articular chondrocytes assessed as inhibition of IL1-induced reduction of aggrecan mRNA expression at 10 uM after 5 days by Northern blot analysis relative to control. Type of experiment: functional.
The species entered for experiment [3] is Bos taurus. The experiment is described as follows: (§3) Antiosteoarthritis activity in bovine articular chondrocytes assessed as inhibition of IL1-induced reduction of aggrecan mRNA expression at 0.1 uM after 5 days by Northern blot analysis relative to control. Type of experiment: functional.
The species named for experiment [4] is Bos taurus. Kind of experiment: (§4) Antiosteoarthritis activity in bovine articular chondrocytes assessed as induction of aggrecan mRNA expression at 0.1 uM after 5 days by Northern blot analysis relative to control. The class given is functional.
The species entered for experiment [5] is Bos taurus. Kind of experiment: (§5) Antiosteoarthritis activity in bovine articular chondrocytes assessed as inhibition of IL1-induced reduction of aggrecan mRNA expression at 1 uM after 5 days by Northern blot analysis relative to control. Type of experiment: functional.
The species named for experiment [6] is Bos taurus. The experiment is described as follows: (§6) Antiosteoarthritis activity in bovine articular chondrocytes assessed as induction of aggrecan mRNA expression at 1 uM after 5 days by Northern blot analysis relative to control. Type of experiment: functional.
The nature of experiment [7]: as §1. The class given is functional. The note with it: Bos taurus, 120 h; values are per cent of control.
Experiment [8] is described as follows: as §3. The class given is functional, Bos taurus. Also on record: scale not given: the % may be the effect or the level left.
A short description of experiment [9]: as §4. Type of experiment: functional, Bos taurus.
The nature of experiment [10]: as §5. The class given is functional, Bos taurus. The arrangement: scale not given: the % may be the effect or the level left.
Experiment [11] is described as follows: (§7) Antiosteoarthritis activity in bovine articular chondrocytes assessed as induction of aggrecan mRNA expression at 10 uM after 5 days by RT-PCR analysis relative to control. The class given is functional, Bos taurus.
The species named for experiment [12] is Bos taurus. The experiment is described as follows: Antiosteoarthritis activity in bovine articular chondrocytes assessed as restoration of IL-1-inuced inhibition of proteoglycans biosynthesis at 0.1 to 10 uM. Type of experiment: functional, cell-based.
A short description of experiment [13]: Antiosteoarthritis activity in bovine articular chondrocytes assessed as inhibition of IL1-induced reduction of aggrecan mRNA expression at 1 uM after 5 days by RT-PCR analysis relative to control. Type of experiment: functional. The following applies: Bos taurus, 120 h.
A short description of experiment [14]: as §6. Type of experiment: functional, Bos taurus.
The species named for experiment [15] is Bos taurus. The experiment is described as follows: Induction of TGF-beta1 mRNA expression in bovine articular chondrocytes at 1 uM after 5 days by RT-PCR analysis in presence of IL-1. The class given is functional, cell-based.
The species named for experiment [16] is Bos taurus. The experiment is described as follows: Induction of TGF-beta1 mRNA expression in bovine articular chondrocytes at 10 uM after 5 days by RT-PCR analysis. Type of experiment: functional, cell-based.
For experiment [17], the species on record is Bos taurus. The experiment is described as follows: Induction of TGF receptor type 1 mRNA expression in bovine articular chondrocytes at 1 uM after 5 days by RT-PCR analysis. Type of experiment: functional, cell-based.
The nature of experiment [18]: Induction of TGF-beta2 mRNA expression in bovine articular chondrocytes at 1 uM after 5 days by RT-PCR analysis relative to control. The class given is functional, Bos taurus.
Experiment [19] is described as follows: Induction of TGF receptor type 2 mRNA expression in bovine articular chondrocytes at 10 uM after 5 days by RT-PCR analysis relative to control. Type of experiment: functional, Bos taurus.
Experiment [20] can be described thus: Induction of TGF-beta2 mRNA expression in bovine articular chondrocytes at 10 uM after 5 days by RT-PCR analysis relative to control. The class given is functional, Bos taurus.
For experiment [21], the species on record is Bos taurus. Kind of experiment: Induction of TGF-beta1 mRNA expression in bovine articular chondrocytes at 1 uM after 5 days by RT-PCR analysis. The class given is functional, cell-based.
For experiment [22], the species on record is Bos taurus. Kind of experiment: Induction of TGF-beta1 mRNA expression in bovine articular chondrocytes at 10 uM after 5 days by RT-PCR analysis in presence of IL-1. The class given is functional, cell-based.
Experiment [23] is filed under the species Bos taurus. The experiment is described as §7. Type of experiment: functional.
For experiment [24], the species on record is Bos taurus. The experiment is described as follows: Induction of TGF receptor type 1 mRNA expression in bovine articular chondrocytes at 1 uM after 5 days by RT-PCR analysis in presence of IL-1. The class given is functional, cell-based.
The species named for experiment [25] is Bos taurus. Kind of experiment: Induction of TGF receptor type 1 mRNA expression in bovine articular chondrocytes at 10 uM after 5 days by RT-PCR analysis in presence of IL-1. Type of experiment: functional, cell-based.
The species entered for experiment [26] is Bos taurus. Kind of experiment: Induction of TGF receptor type 1 mRNA expression in bovine articular chondrocytes at 10 uM after 5 days by RT-PCR analysis. The class given is functional, cell-based.
Experiment [27] in a line: Induction of TGF receptor type 2 mRNA expression in bovine articular chondrocytes at 1 uM after 5 days by RT-PCR analysis relative to control. The class given is functional, Bos taurus.
Experiment [28] in a line: Antiosteoarthritis activity in bovine articular chondrocytes assessed as inhibition of IL1-induced reduction of aggrecan mRNA expression at 0.1 uM after 5 days by RT-PCR analysis relative to control. The note with it: Bos taurus, 120 h. Type of experiment: functional.
Experiment [29] is described as follows: as §2. Type of experiment: functional, Bos taurus. Also on record: scale not given: the % may be the effect or the level left.

For `CN1C(C(=O)NCCCC[N+](C)(C)C)=C(O)c2ccccc2S1(=O)=O`, the result in [1], in [2], in experiment [3], in experiment [4], in experiment [5] and in experiment [6] was inactive.

By inhibition is commonly meant the relative decrease from the control value, in per cent. With `CC[N+](C)(CC)CCCNC(=O)C1=C(O)c2ccccc2S(=O)(=O)N1C.[I-]`, the response, % of control at 10 µM in [7] was determined as 216%. For the same molecule, the outcome in experiment [2], in [3], in experiment [5] and in experiment [12] was Active. In addition, the Activity came to 216% in experiment [8], 31% in experiment [9], 130% in experiment [10] and 31% in [11]. For the same molecule, the inhibition at 1 µM in experiment [13] is 130%.

In the case of `CN1C(C(=O)Nc2ccccn2)=C(O)c2ccccc2S1(=O)=O` [PIROXICAM], the outcome in [2], in experiment [3] and in experiment [5] was Active. The Activity in experiment [9] is 23%; in [14] it was 37%.

With `CC[N+](CC)(CC)CCCNC(=O)C1=C(O)c2ccccc2S(=O)(=O)N1C`, the result in experiment [1], in experiment [2], in experiment [3], in experiment [4], in [5] and in experiment [6] was inactive.

Consider `CC[N+](C)(C)CCCNC(=O)C1=C(O)c2ccccc2S(=O)(=O)N1C`, for which the result in experiment [1], in [2], in experiment [3], in experiment [4], in experiment [5] and in [6] was inactive.

For the molecule `CN1C(C(=O)NCCC[n+]2ccccc2)=C(O)c2ccccc2S1(=O)=O`, the result in experiment [1], in experiment [2], in [3], in [4], in experiment [5] and in [6] was inactive.

As to `CN1C(C(=O)NCCC[N+](C)(C)C)=C(O)c2ccccc2S1(=O)=O.[I-]`, the result in experiment [15], in experiment [16], in experiment [17], in experiment [21], in experiment [22] and in experiment [24] was inactive. The outcome in experiment [25] and in experiment [26] was inactive. Further, the Activity is recorded as 30% in [18]; 18% in experiment [19]; 37% in experiment [20]; 62% in experiment [11]; 45% in experiment [27]. In addition, the outcome in experiment [23] and in experiment [12] was Active. In addition, the inhibition at 1 µM in experiment [13] came to 63%. In addition, the inhibition at 0.1 µM in experiment [28] is 150%.

On to `CN(C)CCCNC(=O)C1=C(O)c2ccccc2S(=O)(=O)N1C` [PROPOXICAM], for which the outcome in [15], in experiment [16], in experiment [17], in experiment [21], in experiment [22] and in experiment [24] was inactive. Also, the outcome in [25] and in [26] was inactive. Further, the Activity in [18] amounted to 31%; in [29], 65%; in experiment [20], 22%; in experiment [9], 25%; in experiment [14], 25%. Further, the result in experiment [2], in experiment [3] and in experiment [5] was Active.
